# Patent publication US8487098B2, “Synergistic combination of flumetsulam or diclosulam with isothiazolones” (Dow Global Technologies LLC, priority 2010, dated 2013)
# Assays:
# Format in all cases: cell-based
# Details in all cases: 4 weeks; for % inhibition: at the total conc given; for Total conc, ppm: minimum inhibitory concentration in paint
# [1] = system: Cp + To + Ta + Cs + Ck + Nc; test: Algal efficacy testing, modified ASTM 5589, paint film, pool grown on Bold media
# Description: (§1) A single or blend of biocides was post added into white acrylic latex paint free of biocides to give a maximum total active ingredient/s concentration tested. This paint was then diluted with a biocide free acrylic latex paint to give targeted concentrations for the testing. Depending on the type of biocide blends tested, the total biocides concentrations varies from 200 to 5000 ppm. After biocides addition or dilution, each sample was hand mixed for at least a minute until uniformity is achieved. Each of the paint samples as well as a control sample (containing no biocide) were used to prepare films on black plastic-vinyl chloride/acetate copolymer panels (LENETA, Mahwah, N.J.) using a 3 mil (0.0762 mm) bird bar applicator. The panels were thoroughly dried for at least 2 days avoiding direct exposure to sunlight. Square discs (0.5 inch; 1.27 cm^2) were cut out from each panel and were used as the substrate for fungal and algal efficacy tests. This sample size allowed for an agar border when the sample disc was placed into the well of the test plate. Each sample was tested in duplicate
# (§2) The appropriate media (BOLD'S 3N for Chlorophytes, BG-11 for Cyanobacteria, and PDA for fungi) were used to support microbial growth. The test plates were maintained at room temp (25° C.-26° C.), in a cycled light-dark environment, for four weeks for algae. Plates for fungal challenge tests were maintained at 30 C for four weeks. At the end of the incubation period the samples were scored for percent area covered by visible microbial growth.
# (§3) Algal Efficacy Testing—Modified ASTM 5589
# (§4) ASTM 5589 is a standard accelerated test method for determining resistance of various coatings (including paints) to algal defacement. To accommodate for high-throughput screening, this method was scaled down from petri plates to 6-well plates. A single coupon was placed with a pair of sterile forceps at the center of the agar plug (on top) with the painted surface facing upwards. Algal inoculums were prepared by mixing equal concentrations (1×10^6 cfu/ml) and equal volumes (depending on number of samples to be inoculated) of like growing organisms.
# (§5) In Diclosulam+various IT synergy study, only two pools of mixed algae were prepared; Gloeocapsa sp. and Oscillatoria sp. grown on BG-11 media and Chlorella sp., Chlorella kessleri, Nostoc commune, Trentepohlia aurea, Tretepohlia odorata, and Calotrix parientina grown on Bold media
# (§6) Each well that contains a tested coupon was inoculated with 400 μl of organism mixture (1×10^6 cfu/ml) making sure that the whole surface (paint film as well as the agar surrounding it) was evenly covered. The plates were incubated at room temp (25° C.-26° C.) with cyclic exposure to light (OTT-Lite model #OTL4012P, 40 Watt, 26 KLumen) and dark phases, for a period of four weeks. The total area covered was evaluated at the end of each week according to percent area covered in 5% increments.
# (§7) Synergy Index Calculation
# (§8) The SI is calculated based on F. C. Kull et.
# (§9) Qa=the concentration of Biocide A in the blend
# (§10) QA=The concentration of Biocide A as the only biocide
# (§11) Qb=The concentration of Biocide B in the blend
# (§12) QB=The concentration of Biocide B as the only biocide
# (§13) SI value of <1 in the formula indicates a synergism of the blended biocides exists.
# (§14) NE=no end point at the concentration tested that will meet the percent inhibition criteria set in each SI calculation
# [2] = system: Gloeocapsa sp. and Oscillatoria sp. (Gs + Os); test: Algal efficacy testing, modified ASTM 5589, paint film
# Description: as §1, §2, §3, §4
# (§15) In Flumetsulam+various IT synergy study, three pool of mixed algae were prepared as the test inoculum, Gloeocapsa sp. and Oscillatoria sp. a mix of cyanobacteria grown on BG-11 media; Chlorella sp., Chlorella kessleri, and Nostoc commune are unicellular chlorphytes that were mixed and grown on Bold media; Trentepohlia aurea, Tretepohlia odorata, and Calotrix parientina are filamentous algae that were mixed and grown on Bold media.
# as §5, §6, §7, §8, §9, §10, §11, §12, §13, §14
# [3] = system: Aa + Tv + An + Pf + Ap + Ch; test: Fungal efficacy testing, modified ASTM 5590, paint film, single pool of all fungi
# Description: as §1, §2
# (§16) Fungal Efficacy Testing—Modified ASTM 5590
# (§17) ASTM 5590 is a standard accelerated test method for determining resistance of various coatings (including paints) to fungal defacement. To accommodate for high-throughput screening, this method was scaled down from petri plates to 6-well plates. To set up the test, an agar plug was placed at the bottom of each well of the sterile 6-well plate. A single coupon was placed with a pair of sterile forceps at the center of the agar plug (on top) with the painted surface facing upwards. Fungal inoculums were prepared by mixing equal concentrations (1×10^6 cfu/ml) and equal volumes (depending on number of samples to be tested) of like growing organisms. For Flumetsulam+various IT synergy study, three pools of mixed fungi were prepared as the test inoculum. Cladosporium herbarum was mixed with Aureobasidium pullulans; Aspergillus niger was mixed with Penicillium funiculosum and Alternaria alternata was mixed with Trichoderma viride. For Diclosulam+various IT synergy study, all above fungi were mixed as a single pool. Each well was inoculated with 400 μl of organism mixture (1×10^6 cfu/ml) making sure that the whole surface (paint film as well as the agar surrounding it) was evenly covered. The plates were incubated at 30° C. in presence of moisture, for a period of four weeks. The total percent area covered was evaluated and recorded at the end of each week after the 2nd week and recorded in increments of 5%.
# as §7, §8, §9, §10, §11, §12, §13, §14
# [4] = system: Trentepohlia aurea, Tretepohlia odorata, and Calotrix parientina (Cp + To + Ta); test: Algal efficacy testing, modified ASTM 5589, paint film
# Description: as §1, §2, §3, §4, §15, §6, §7, §8, §9, §10, §11, §12, §13, §14
# [5] = system: Chlorella sp., Chlorella kessleri, and Nostoc commune (Cs + Ck + Nc); test: as above
# Description: as §1, §2, §3, §4, §15, §6, §7, §8, §9, §10, §11, §12, §13, §14
# [6] = system: Alternaria alternata mixed with Trichoderma viride (AaTv); test: Fungal efficacy testing, modified ASTM 5590, paint film
# Description: as §1, §2, §16, §17, §7, §8, §9, §10, §11, §12, §13, §14
# [7] = system: Cladosporium herbarum mixed with Aureobasidium pullulans (ApCh); test: as above
# Description: as §1, §2, §16, §17, §7, §8, §9, §10, §11, §12, §13, §14
# [8] = system: Aspergillus niger mixed with Penicillium funiculosum (AnPf); test: as above
# Description: as §1, §2, §16, §17, §7, §8, §9, §10, §11, §12, §13, §14
# [9] = Synergy study of Diclosulam and DCOIT
# [10] = Synergy study of Diclosulam+OIT
# [11] = Flumetsulam:BBIT synergy study, NE=no end point
# [12] = Flumetsulam:DCOIT synergy study
smiles,measurement,setting,value
"CCOc1nc(F)cc2nc(S(=O)(=O)Nc3c(Cl)cccc3Cl)nn12 [Diclosulam, N-(2,6-dichlorophenyl)-5-ethoxy-7-fluoro[1,2,4]triazolo[1,5-c]pyrimidine-2-sulfonamide]",% inhibition,[1]; [9],100%
same,"Total conc, ppm",[1]; [9],437.5 ppm
same,% inhibition,[1]; [10],100%
same,"Total conc, ppm",[1]; [10],437.5 ppm
same,% inhibition,[2]; [9],100%
same,"Total conc, ppm",[2]; [9],437.5 ppm
same,% inhibition,[2]; [10],100%
same,"Total conc, ppm",[2]; [10],437.5 ppm
same,% inhibition,[3]; [9],40%
same,"Total conc, ppm",[3]; [9],3500 ppm
same,% inhibition,[3]; [10],0%
same,"Total conc, ppm",[3]; [10],3500 ppm
"Cc1ccn2nc(S(=O)(=O)Nc3c(F)cccc3F)nc2n1 [Flumetsulam, N-(2,6-difluorophenyl)-5-methyl[1,2,4]triazolo[1,5-a]pyrimidine-2-sulfonamide]",% inhibition,[4]; Flumetsulam:BBIT synergy study,0%
same,"Total conc, ppm",[4]; [11],3500 ppm
same,% inhibition,[4]; [12],95%
same,"Total conc, ppm",[4]; [12],437.5 ppm
same,% inhibition,[4]; Flumetsulam:OIT synergy study,60%
same,"Total conc, ppm",[4]; Flumetsulam:OIT synergy study,437.5 ppm
same,% inhibition,[5]; Flumetsulam:BBIT synergy study,0%
same,"Total conc, ppm",[5]; Flumetsulam:BBIT synergy study,3500 ppm
same,% inhibition,[5]; [12],100%
same,"Total conc, ppm",[5]; [12],1750 ppm
same,% inhibition,[5]; Flumetsulam:OIT synergy study,65%
same,"Total conc, ppm",[5]; Flumetsulam:OIT synergy study,2625 ppm
same,% inhibition,[2]; Flumetsulam:BBIT synergy study,0%
same,"Total conc, ppm",[2]; Flumetsulam:BBIT synergy study,3500 ppm
same,% inhibition,[2]; [12],100%
same,"Total conc, ppm",[2]; [12],2625 ppm
same,% inhibition,[2]; Flumetsulam:OIT synergy study,90%
same,"Total conc, ppm",[2]; Flumetsulam:OIT synergy study,437.5 ppm
same,% inhibition,[6]; Flumetsulam:BBIT synergy study,0%
same,"Total conc, ppm",[6]; [11],3500 ppm
same,% inhibition,[6]; [12],0%
same,"Total conc, ppm",[6]; [12],3500 ppm
same,% inhibition,[6]; Flumetsulam:OIT synergy study,0%
same,"Total conc, ppm",[6]; Flumetsulam:OIT synergy study,3500 ppm
same,% inhibition,[7]; Flumetsulam:BBIT synergy study,0%
same,"Total conc, ppm",[7]; [11],3500 ppm
same,% inhibition,[7]; [12],90%
same,"Total conc, ppm",[7]; [12],3500 ppm
same,% inhibition,[7]; Flumetsulam:OIT synergy study,0%
same,"Total conc, ppm",[7]; Flumetsulam:OIT synergy study,3500 ppm
same,% inhibition,[8]; Flumetsulam:BBIT synergy study,0%
same,"Total conc, ppm",[8]; Flumetsulam:BBIT synergy study,3500 ppm
same,% inhibition,[8]; [12],0%
same,"Total conc, ppm",[8]; [12],3500 ppm
same,% inhibition,[8]; Flumetsulam:OIT synergy study,65%
same,"Total conc, ppm",[8]; Flumetsulam:OIT synergy study,3500 ppm
"CCCCCCCCn1sccc1=O [OIT, 2-n-octyl-4-isothiazolin-3-one]",% inhibition,[4]; Flumetsulam:OIT synergy study,100%
same,"Total conc, ppm",[4]; Flumetsulam:OIT synergy study,450 ppm
same,% inhibition,[5]; Flumetsulam:OIT synergy study,100%
same,"Total conc, ppm",[5]; Flumetsulam:OIT synergy study,450 ppm
same,% inhibition,[1]; [10],100%
same,"Total conc, ppm",[1]; [10],900 ppm
same,% inhibition,[2]; Flumetsulam:OIT synergy study,100%
same,"Total conc, ppm",[2]; Flumetsulam:OIT synergy study,450 ppm
same,% inhibition,[2]; [10],100%
same,"Total conc, ppm",[2]; [10],900 ppm
same,% inhibition,[3]; [10],100%
same,"Total conc, ppm",[3]; [10],450 ppm
same,% inhibition,[6]; Flumetsulam:OIT synergy study,100%
same,"Total conc, ppm",[6]; Flumetsulam:OIT synergy study,900 ppm
same,% inhibition,[7]; Flumetsulam:OIT synergy study,80%
same,"Total conc, ppm",[7]; Flumetsulam:OIT synergy study,900 ppm
same,% inhibition,[8]; Flumetsulam:OIT synergy study,100%
same,"Total conc, ppm",[8]; Flumetsulam:OIT synergy study,450 ppm
